Experimental data from BindingDB's records for doi:10.1111/cbdd.12686 (Jamia Hamdard, 2016).

Target: Xanthine dehydrogenase/oxidase (Bos taurus, UniProt P80457)
Assay: Xanthine Oxidase (XO) Assay
Settings: pH 7.4

Xanthine dehydrogenase/oxidase, sequence (P80457 whole entry): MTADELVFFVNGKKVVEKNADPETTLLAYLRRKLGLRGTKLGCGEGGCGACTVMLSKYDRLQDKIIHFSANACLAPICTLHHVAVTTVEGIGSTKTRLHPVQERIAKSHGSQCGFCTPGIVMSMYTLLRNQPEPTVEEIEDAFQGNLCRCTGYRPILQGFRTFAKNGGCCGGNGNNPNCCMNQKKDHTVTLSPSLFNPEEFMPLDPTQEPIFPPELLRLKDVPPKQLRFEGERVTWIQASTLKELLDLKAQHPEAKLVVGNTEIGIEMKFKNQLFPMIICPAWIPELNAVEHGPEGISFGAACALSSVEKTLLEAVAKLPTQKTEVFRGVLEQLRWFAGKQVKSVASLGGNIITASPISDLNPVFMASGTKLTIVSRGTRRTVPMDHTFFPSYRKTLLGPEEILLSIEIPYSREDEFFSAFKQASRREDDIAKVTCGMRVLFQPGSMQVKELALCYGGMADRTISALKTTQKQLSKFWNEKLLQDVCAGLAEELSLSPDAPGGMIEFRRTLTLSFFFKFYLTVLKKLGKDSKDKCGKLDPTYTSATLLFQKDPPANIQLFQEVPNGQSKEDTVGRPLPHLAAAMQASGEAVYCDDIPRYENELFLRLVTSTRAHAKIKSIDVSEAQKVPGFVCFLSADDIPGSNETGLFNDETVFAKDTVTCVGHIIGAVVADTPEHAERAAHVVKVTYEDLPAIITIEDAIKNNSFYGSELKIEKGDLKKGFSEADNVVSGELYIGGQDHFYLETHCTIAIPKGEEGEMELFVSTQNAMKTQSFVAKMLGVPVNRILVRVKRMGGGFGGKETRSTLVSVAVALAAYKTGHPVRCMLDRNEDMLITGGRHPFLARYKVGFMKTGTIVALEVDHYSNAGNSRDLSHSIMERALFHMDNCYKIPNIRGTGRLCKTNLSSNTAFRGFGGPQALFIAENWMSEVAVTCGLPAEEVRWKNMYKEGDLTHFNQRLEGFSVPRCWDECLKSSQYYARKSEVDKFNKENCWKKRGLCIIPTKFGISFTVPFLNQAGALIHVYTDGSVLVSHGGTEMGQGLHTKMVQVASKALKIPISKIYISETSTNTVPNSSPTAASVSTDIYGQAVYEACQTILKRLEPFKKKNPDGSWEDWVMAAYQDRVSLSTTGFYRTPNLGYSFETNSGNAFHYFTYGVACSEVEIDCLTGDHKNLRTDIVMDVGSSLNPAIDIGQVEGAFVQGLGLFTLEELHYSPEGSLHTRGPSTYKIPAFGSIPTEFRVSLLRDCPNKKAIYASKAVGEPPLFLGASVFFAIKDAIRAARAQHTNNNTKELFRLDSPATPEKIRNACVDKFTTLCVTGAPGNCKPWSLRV

Structure (SMILES)	IC50
Cc1nc(NCc2ccc(Cl)cc2Cl)sc1C(=O)O [2-{[(2,4-dichlorophenyl)methyl]amino}-4-methyl-1,3-thiazole-5-carboxylic acid (5l)]	8.1 µM
Cc1nc(NCc2ccccc2Br)sc1C(=O)O [2-{[(2-bromophenyl)methyl]amino}-4-methyl-1,3-thiazole-5-carboxylic acid (5i)]	> 100 µM
Cc1nc(NCc2ccccc2Cl)sc1C(=O)O [2-{[(2-chlorophenyl)methyl]amino}-4-methyl-1,3-thiazole-5-carboxylic acid (5j)]	9.9 µM
Cc1nc(NCc2ccccc2O)sc1C(=O)O [2-{[(2-hydroxyphenyl)methyl]amino}-4-methyl-1,3-thiazole-5-carboxylic acid (5m)]	> 100 µM
COc1ccccc1CNc1nc(C)c(C(=O)O)s1 [2-{[(2-methoxyphenyl)methyl]amino}-4-methyl-1,3-thiazole-5-carboxylic acid (5n)]	14.7 µM
Cc1nc(NCc2ccc(O)c(O)c2)sc1C(=O)O [2-{[(3,4-dihydroxyphenyl)methyl]amino}-4-methyl-1,3-thiazole-5-carboxylic acid (5p)]	60.2 µM
Cc1ccccc1CNc1nc(C)c(C(=O)O)s1 [4-methyl-2-{[(2-methylphenyl)methyl]amino}-1,3-thiazole-5-carboxylic acid (5k)]	3.6 µM

More lines, now with the values ahead:

IC50	Structure (SMILES)
98.1 µM	Cc1nc(NCc2ccccc2)sc1C(=O)O [2-(Benzylamino)-4-methyl-1,3-thiazole-5-carboxylic acid (5a)]
43.2 µM	Cc1nc(NCc2ccc(Br)cc2)sc1C(=O)O [2-{[(4-bromophenyl)methyl]amino}-4-methyl-1,3-thiazole-5-carboxylic acid (5d)]
> 100 µM	Cc1nc(NCc2ccc(Cl)cc2)sc1C(=O)O [2-{[(4-chlorophenyl)methyl]amino}-4-methyl-1,3-thiazole-5-carboxylic acid (5b)]
30.3 µM	Cc1nc(NCc2ccc(F)cc2)sc1C(=O)O [2-{[(4-fluorophenyl)methyl]amino}-4-methyl-1,3-thiazole-5-carboxylic acid (5c)]
21.5 µM	Cc1nc(NCc2ccc(O)cc2)sc1C(=O)O [2-{[(4-hydroxyphenyl)methyl]amino}-4-methyl-1,3-thiazole-5-carboxylic acid (5f)]
> 100 µM	COc1ccc(CNc2nc(C)c(C(=O)O)s2)cc1 [2-{[(4-methoxyphenyl)methyl]amino}-4-methyl-1,3-thiazole-5-carboxylic acid (5g)]
> 100 µM	Cc1ccc(CNc2nc(C)c(C(=O)O)s2)cc1 [4-methyl-2-{[(4-methylphenyl)methyl]amino}-1,3-thiazole-5-carboxylic acid (5e)]
